We go through ten compounds from PubChem BioAssay (NCI).

Test systems include CCRF-CEM leukemia; NCI-H226 lung; MALME-3M melanoma; SNB-75 CNS; UO-31 renal; U251 CNS; MOLT-4 leukemia; HCT-15 colon; ACHN renal; SK-MEL-5 melanoma.
Common to all, as to assay: inhibition of tumour cell growth, NCI panel, 48 h

The structures appear in SMILES notation.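 Protocol summary: plate cells (96-well), add compound at 5 concentrations, incubate 48 h, interpolate endpoints linearly. The concentration for 50% growth inhibition is given as GI50. TGI: concentration producing complete growth inhibition.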

For the compound `CC(C)(C)c1cc2c(OP(c3ccccc3)c3ccccc3)c(c1)Cc1cc(C(C)(C)C)cc(c1OP(c1ccccc1)c1ccccc1)Cc1cc(C(C)(C)C)cc(c1OP(c1ccccc1)c1ccccc1)Cc1cc(C(C)(C)C)cc(c1OP(c1ccccc1)c1ccccc1)C2`, the GI50 with CCRF-CEM leukemia was 44.6 µM; in the test with NCI-H226 lung it was greater than 50 µM; in the test on MALME-3M melanoma, greater than 50 µM; in the test with SNB-75 CNS, greater than 50 µM; with UO-31 renal, greater than 50 µM; in the test with U251 CNS it was greater than 50 µM. For the same compound, the GI50 with HCT-15 colon and in the test with SK-MEL-5 melanoma was greater than 50 µM each time. The TGI in the test with CCRF-CEM leukemia, with NCI-H226 lung, with MALME-3M melanoma, in the test on SNB-75 CNS, with UO-31 renal and with U251 CNS was greater than 50 µM each time. For the same compound, the TGI with MOLT-4 leukemia is greater than 5 µM; in the test on HCT-15 colon, greater than 50 µM; with ACHN renal it was greater than 5 µM; in the test on SK-MEL-5 melanoma, greater than 50 µM.
In the case of `COc1ccc(/C=C2/CCOC2=O)cc1`, the GI50 was greater than 100 µM in the test with CCRF-CEM leukemia; greater than 100 µM in the test with NCI-H226 lung; greater than 100 µM in the test on MALME-3M melanoma; greater than 100 µM in the test on SNB-75 CNS; 49.8 µM in the test on UO-31 renal; greater than 100 µM with U251 CNS. Also, the GI50 with MOLT-4 leukemia, in the test on HCT-15 colon, with ACHN renal and in the test on SK-MEL-5 melanoma was greater than 100 µM each time. In addition, the TGI in the test with CCRF-CEM leukemia, in the test with NCI-H226 lung, in the test on MALME-3M melanoma, with SNB-75 CNS, in the test on UO-31 renal and with U251 CNS was greater than 100 µM each time. Besides, the TGI in the test on MOLT-4 leukemia, in the test with HCT-15 colon, with ACHN renal and in the test with SK-MEL-5 melanoma was greater than 100 µM each time.
With `O=C1c2ccccc2C(=O)N1C/C=N/NS(=O)(=O)c1ccc(Cl)cc1`, the TGI with CCRF-CEM leukemia, with NCI-H226 lung, in the test with MALME-3M melanoma, in the test with SNB-75 CNS, in the test on UO-31 renal and in the test on U251 CNS was greater than 100 µM throughout. Also, the TGI with MOLT-4 leukemia, in the test on HCT-15 colon, in the test on ACHN renal and in the test on SK-MEL-5 melanoma was greater than 100 µM throughout.
Turning to `NC(CCc1nc(-c2ccccc2)cs1)C(=O)O` (stereo not drawn), the TGI in the test with CCRF-CEM leukemia, with NCI-H226 lung, in the test with MALME-3M melanoma, with SNB-75 CNS, in the test on UO-31 renal and in the test with U251 CNS was greater than 100 µM each time. The TGI in the test with MOLT-4 leukemia, in the test with HCT-15 colon, with ACHN renal and in the test on SK-MEL-5 melanoma was greater than 100 µM each time.
As to `COc1cc(C)c(N(C)C(=O)CN(C)C)cc1Nc1nc(Nc2cccc(F)c2C(N)=O)c2cc[nH]c2n1`, the GI50 in the test with CCRF-CEM leukemia was greater than 19.3 µM; with NCI-H226 lung it was greater than 24 µM; with MALME-3M melanoma it was greater than 25 µM; with SNB-75 CNS, greater than 25 µM; with UO-31 renal it was 9.26 µM; in the test on U251 CNS it was greater than 25 µM. Moreover, the GI50 in the test on MOLT-4 leukemia was greater than 21.9 µM; in the test on HCT-15 colon, greater than 25 µM; in the test with ACHN renal, greater than 25 µM; in the test with SK-MEL-5 melanoma it was 13.3 µM. The TGI in the test on CCRF-CEM leukemia, in the test on NCI-H226 lung, in the test on MALME-3M melanoma, in the test with SNB-75 CNS, in the test on UO-31 renal and with U251 CNS was greater than 25 µM throughout. Besides, the TGI in the test with MOLT-4 leukemia, in the test with HCT-15 colon, in the test on ACHN renal and in the test on SK-MEL-5 melanoma was greater than 25 µM each time.
As to `COC(=O)/C1=C/C2CC(/C=C(/c3ccccc3)C(=O)O1)C2`, the TGI in the test on CCRF-CEM leukemia was 70.5 µM; in the test with NCI-H226 lung, 44.7 µM; in the test on MALME-3M melanoma it was 54.2 µM; with SNB-75 CNS, 35.4 µM; in the test on UO-31 renal, greater than 100 µM; with U251 CNS, 49.3 µM. Also, the TGI in the test on MOLT-4 leukemia came out at 62 µM; with HCT-15 colon, 53.1 µM; in the test on ACHN renal, 96.5 µM; with SK-MEL-5 melanoma it was 47 µM.
Take `COc1cc([N+](=O)[O-])c(S(=O)(=O)O)cc1-n1nc(-c2ccccc2)n[n+]1-c1cc(S(=O)(=O)[O-])c([N+](=O)[O-])cc1OC`: the TGI in the test on CCRF-CEM leukemia, with NCI-H226 lung, with MALME-3M melanoma, in the test with SNB-75 CNS, in the test with UO-31 renal and with U251 CNS was greater than 100 µM each time. Also, the TGI in the test with MOLT-4 leukemia, in the test with HCT-15 colon, with ACHN renal and in the test with SK-MEL-5 melanoma was greater than 100 µM throughout.
With `CCCCC/C=C1\CCC(CN2CCOCC2)C1=O` (stereo not drawn), the TGI was determined as 29.9 µM with CCRF-CEM leukemia; 33.5 µM in the test on NCI-H226 lung; 18.9 µM with MALME-3M melanoma; 33.5 µM in the test on SNB-75 CNS; 25.9 µM with UO-31 renal; 23.8 µM with U251 CNS. Further, the TGI in the test on MOLT-4 leukemia came to 7.55 µM; in the test with HCT-15 colon it was 21.8 µM; in the test on ACHN renal, 30.1 µM; in the test on SK-MEL-5 melanoma, 31.1 µM.
As to `CC(C)(C)c1ccc(NC(=O)c2cc(=O)c3ccccc3[nH]2)c(C(C)(C)C)c1O`, the GI50 was 2.33 µM in the test on CCRF-CEM leukemia; 13.6 µM in the test on NCI-H226 lung; 12.1 µM in the test with MALME-3M melanoma; 7.4 µM with SNB-75 CNS; 5.15 µM in the test on UO-31 renal; 3.59 µM in the test with U251 CNS. The GI50 in the test with MOLT-4 leukemia was 2.67 µM; with HCT-15 colon, 4.32 µM; in the test on ACHN renal, 4.13 µM; in the test with SK-MEL-5 melanoma, 6.51 µM. In addition, the TGI in the test with CCRF-CEM leukemia was determined as 8.25 µM; in the test with NCI-H226 lung it was 28.9 µM; in the test with MALME-3M melanoma it was 26.3 µM; in the test on SNB-75 CNS it was 21.8 µM; with UO-31 renal, 17.5 µM; in the test on U251 CNS it was 12.9 µM. The TGI in the test on MOLT-4 leukemia was determined as 7.59 µM; with HCT-15 colon, 15.5 µM; in the test on ACHN renal, 12.8 µM; in the test with SK-MEL-5 melanoma, 19 µM.
Regarding `CCC1(c2ccncc2)CCC(=O)NC1=O` (stereo not drawn), the TGI with CCRF-CEM leukemia, in the test with NCI-H226 lung, in the test with MALME-3M melanoma, in the test on SNB-75 CNS, in the test on UO-31 renal and in the test on U251 CNS was greater than 100 µM throughout. The TGI with MOLT-4 leukemia, in the test on HCT-15 colon, in the test on ACHN renal and in the test with SK-MEL-5 melanoma was greater than 100 µM in each case.
